Reference: patent publication US8129426B2, “Water-soluble artemisinin derivatives, their preparation methods, the pharmaceutical compositions and the use thereof” (priority 2005, dated 2012)

Columns and labels:
[1] = tested on: response lymphocytes in MLR; test: Homologous and heterogeneous mixed lymphocyte proliferation reaction (MLR); type: cell-based, C57BL/6 and Balb/c mice; details: read-out: EC50, inhibition of proliferation of the response lymphocytes in MLR
Excerpt: [3] Homologous and Heterogeneous Mixed Lymphocyte Proliferation Reaction (MLR)
1) C57BL/6 and Balb/c mice were killed by cervical dislocation, and their spleens were collected aseptically and levigated into a single cell suspension. After removing the erythrocytes, the cell concentration was adjusted to 6×10^6/mL with RPMI-1640 medium containing 10% FBS.
2) The spleen cells of C57BL/6 mice as the response cells and the spleen cells of Balb/c mice (irradiated with Co60, 3000 rads) as the stimulus cells were mixed in equal volumes.
3) 100 μL cell mixture, 100 μL testing sample were added into a 96-well plate. For the control group, 100 μL medium containing 10% serum was added. And single culture controls of the two kinds of cells were set.
4) The cell cultures were incubated in 5% CO2 incubator at 37 °C for 3, 4 or 5 days. 25 μL ^3H diluent (i.e. […] [^3H]-thymidine) was added one day before the termination of the incubation.
5) After the incubation was terminated, the plate was freezed in a −20[…] refrigerator.
6) The cells were harvested on a glassfiber film with a cell harvestor (HARVESTER96′, TOMTEC), and the incorporation of [^3H]-thymidine in DNA was measured with a liquid scintillation counter (MicroBeta Trilux®, PerkinElmer) to indicate the state of cell proliferation.

[2] = tested on: T-cell proliferation (Con A); test: Lymphocyte proliferation test, T-cell proliferation stimulated with Con A; type: cell-based, Balb/c mice; parameters: concentration or dose not given beside the values; details: concentration without any cytotoxicity; screened at 10, 1 and 0.1 μm
Description: (§1) Experimental animals: inbred Balb/c male mice, 6-8 weeks old.
(§2) RPMI-1640 culture solution (Roswell Park Memorial Institure-1640 medium, from GibcoBRL, Life Technologies, USA) with 10% fetal bovine serum (FBS), 100 U/mL penicillin, 100 μg/mL streptomycin, 10 mM HEPES (4-(2-hydroxyethyl)-1-piperazineethane sulfonic acid) and 50 μM 2-ME (2-Mercaptoethanol).
(§3) Stimulant: Concanavalin (ConA), and bacterial Lipopolysaccharide (LPS, from Escherichia Coli 055: B5), diluted with RPMI-1640 culture solution to suitable concentration before using.
(§4) [2] Lymphocyte Proliferation Test
(§5) 1) Mice were killed by cervical dislocation, and their spleens were collected aseptically and prepared into a single cell suspension. The cell concentration was adjusted to 4×10^6/mL with RPMI-1640 medium containing 10% FBS.
(§6) 2) 100 μL cell suspension, 50 μL testing sample solution, 50 μL ConA or LPS solution were added into a 96-well plate, and for the control group, 50 μL medium containing 10% FBS was added. The total volume was 200 μL.
(§7) 3) The cell culture was incubated in 5% CO2 incubator at 37 °C for 48 hours, and 0.5 μCi [^3H]-thymidine (25 μL/well) was added into each well 7-8 hours before the termination of the incubation.
(§8) 4) After the incubation was terminated, the cells were harvested on a glassfiber film with a cell harvestor (HARVESTER96®, TOMTEC), and after scintillation fluid was added, the incorporation of [^3H]-thymidine in the cell DNA was measured with a liquid scintillation counter (MicroBeta Trilux®, PerkinElmer) to indicate the state of cell proliferation.

[3] = tested on: mice arthritis induced by bovine collagen type II; test: Mice arthritis model induced by bovine collagen type II; type: in vivo, DBA/1 mice; details: for scorings of the arthritis degree: FIG. 3 and FIG. 4, with and without the compound; for swelling of the mice' joints: oral, p<0.05
[4] = tested on: DTH mice; test: Delayed hypersensitive response animal model (DTH); type: in vivo; details: for thickness difference of swelling on ears: FIG. 1, DTH mice; for weight difference of ear slices: FIG. 2, DTH mice
Description: [4] Delayed Hypersensitive Response Animal Model (DTH)
1) The sensitization was induced by topical application of 20 μL of 0.5% (v/v) DNFB in acetone: olive oil (4:1) onto each rear paw of mice on day 0 and 1;
2) Excipient and testing compounds were given by the oral route 1 day before challenge and then once a day for 2 days (days 8-10);
3) The mice were challenged by application of 10 μL of 0.5% (v/v) DNFB on the inner and outer surfaces of the right ear on day 9;
4) The increase in the ear patch weight (8-mm punches) and ear thickness between the left and right ear was measured 30-48 h after challenge.

[5] = tested on: B-cell proliferation (LPS); test: Lymphocyte proliferation test, B-cell proliferation stimulated with LPS; type: cell-based, Balb/c mice; details: concentration without any cytotoxicity; screened at 10, 1 and 0.1 μm
Description: as §1, §2, §3, §4, §5, §6, §7, §8

Row | Compound | inhibiting rate to T-cell proliferation (Con A) [2] [%] | inhibiting rate to B-cell proliferation (LPS) [5] [%] | also measured
1 | CC1CCC2C(C)C(OCCN)OC3OC4(C)CCC1C32OO4 (stereo not drawn) [Example 1, 2′-amino arteether (β type)] | 65 | 73 | EC50 [1]: 3480 ± 720 nM; scorings of the arthritis degree [3]: can prevent and cure the mice arthritis induced by bovine collagen type II and inhibit the swelling of the sicked joints; swelling of the mice' joints ([3]; 1 mg/kg): obviously reduce the swelling of the mice' joints; thickness difference of swelling on ears [4]: obviously reduced the swelling degree on ears; weight difference of ear slices [4]: obviously reduced the weight of swelling ears; inhibiting rate of swelling of the ear of mice compared with the control group ([4]; oral, 50 mg/kg, p<0.01): 56.5%
2 | CC1CCC2C(C)C(OCC(O)CN)OC3OC4(C)CCC1C32OO4 (stereo not drawn) [Example 2, 3′-amino-2′-hydroxy-artemisinin propyl ether (β type)] | 48 | 48 | –
3 | CNCC(O)COC1OC2OC3(C)CCC4C(C)CCC(C1C)C24OO3 (stereo not drawn) [Example 3, 3′-methylamino-2′-hydroxy-artemisinin propyl ether (β type)] | 47 | 51 | –
4 | CC1CCC2C(C)C(OCC(O)C(N)c3ccccc3)OC3OC4(C)CCC1C32OO4 (stereo not drawn) [Example 8, 3′-phenyl-3′-amino-2′-hydroxy-artemisinin propyl ether (β type)] | 13 | 42 | –
5 | CC1CCC2C(C)C(OCC(O)CN3CCCC3)OC3OC4(C)CCC1C32OO4 (stereo not drawn) [Example 11, 3′-pyrrolidinyl-2′-hydroxy-artemisinin propyl ether (β type)] | 48 | 99 | thickness difference of swelling on ears [4]: obviously reduced the swelling degree on ears; weight difference of ear slices [4]: obviously reduced the weight of swelling ears; inhibiting rate of swelling of the ear of mice compared with the control group ([4]; oral, 100 mg/kg, p<0.01): 50.5%
6 | CC1CCC2C(C)C(OCC(O)CN3CCCCC3)OC3OC4(C)CCC1C32OO4 (stereo not drawn) [Example 12, 3′-piperidyl-2′-hydroxy-artemisinin propyl ether (β type)] | 47 | 47 | –
7 | CC1CCC2C(C)C(OCC(O)CNC(C)(C)C)OC3OC4(C)CCC1C32OO4 (stereo not drawn) [Example 14, 3′-tert-butylamino-2′-hydroxy-artemisinin propyl ether (β type)] | 52 | 81 | EC50 [1]: 670 ± 12 nM; scorings of the arthritis degree [3]: can prevent and cure the mice arthritis induced by bovine collagen type II and inhibit the swelling of the sicked joints; swelling of the mice' joints ([3]; 0.5 mg/kg): obviously reduce the swelling of the mice' joints; thickness difference of swelling on ears [4]: obviously reduced the swelling degree on ears; weight difference of ear slices [4]: obviously reduced the weight of swelling ears; inhibiting rate of swelling of the ear of mice compared with the control group ([4]; oral, 50 mg/kg, p<0.01): 52.2%
8 | CC1CCC2C(C)C(OCC(O)C(c3ccccc3)N3CCCCC3)OC3OC4(C)CCC1C32OO4 (stereo not drawn) [Example 16, 3′-phenyl-3′-piperidyl-2′-hydroxy-artemisinin propyl ether (β type)] | 0 | 51 | –
9 | CC1CCC2C(C)C(OCC(O)C(c3ccccc3)N(C)C)OC3OC4(C)CCC1C32OO4 (stereo not drawn) [Example 17, 3′-phenyl-3′-dimethylamino-2′-hydroxy-artemisinin propyl ether (β type)] | 6 | 24 | –
10 | CC1CCC2C(C)C(OCC(O)C(NC(C)(C)C)c3ccccc3)OC3OC4(C)CCC1C32OO4 (stereo not drawn) [Example 18, 3-phenyl-3′-tert-butylamino-2′-hydroxy-artemisinin propyl ether (β type)] | 9 | 26 | –
11 | cyclosporine A [reference compound] | – | – | inhibiting rate of swelling of the ear of mice compared with the control group ([4]; 5 mg/kg): 40.6%
